Measurements published in EP0609437B1, “NOVEL SPHINGOGLYCOLIPID AND USE THEREOF” (KIRIN BEER KABUSHIKI KAISHA, priority 1991, dated 1993).
Like-named read-outs stand apart in the source and are kept apart here.

Columns and labels:
[1] = system: male Crj:CD rats; experiment: Acute toxicity, single intravenous administration; assay type: in vivo; details: 7 days
Description: (§1) The compound 5 was once administered intravenously in doses of 0.1, 1.0 and 10 mg/kg to the groups of 6 male Crj:CD rats (5 weeks old), and the toxicity tests were conducted for 7 days after the administration of the compound 5.

[2] = Acute toxicity, single intravenous administration; assay type: in vivo; details: rat, in vivo; single intravenous dose, male Crj:CD rats, observed for 7 days
Description: as §1

[3] = system: spleen cells of C57BL/6 mouse and pancreatic cells of BALB/c mouse; experiment: Lymphocyte mixed culture reaction (mouse MLR), uptake of 3H-TdR; assay type: cell-based; details: for activity at 1 µg/mL / activity at 0.1 µg/mL / activity at 0.01 µg/mL: Mus musculus, Lymphocyte, read-out: Uptake of ^3H-TdR (% of control)
Description: Experiment was carried out with the spleen cells of C57BL/6 mouse which had been treated with mitomycin C (50 µg/ml, 30 min) as the stimulator and with the […] cells of BALB/c mouse as the responder. These […] cells were suspended to a concentration of 2 × 10^6 cells/ml with a culture medium of 10% FCS RPMI 1640, respectively. These cells (50 µl/well) and a sample (10 µl/well) were plated in a 96 well round-bottomed plate and cultured for 42 hours* under the condition of 37°C and 5% CO2. ^3H-thymidine (^3H-TdR) was added in a dose of 0.5 µCi/well. After 8 hours, the cells were harvested and subjected to the measurement of the uptake of ^3H-TdR by a liquid scintillation counter.
*The samples of the compounds 32, 33 and 34 were cultured for 4 days.

[4] = system: B16 mouse melanoma cells; experiment: Anti-tumor activity against B16 mouse melanoma inoculated subcutaneously; assay type: in vivo; details: maximum tumor growth inhibition rate during the test period of 20 days, female BDF1 mice, 0.1 mg/kg intravenously on days 1, 5 and 9 after s.c. inoculation; for inhibition in vivo at 0.1 mg/kg: Mus musculus, iv, 480 h, read-out: TGIR (%)
Description: Anti-tumor activity against B16 mouse melanoma inoculated subcutaneously.
Experiment was carried out with the groups of 6 female BDF1 mice (6 weeks old) purchased from Japan SLC Inc., B16 mouse melanoma cells (1 × 10^6 cells/mouse) were inoculated subcutaneously in the rear region of mice, and the sample prepared in a concentration of 0.1 mg/kg was administered intravenously at a dose of 0.2 ml/20g/mouse after 1, 5 and 9 days from inoculation (the day of inoculation being set as 0 day). The volume of the tumor at the hypodermis of the rear region [(longer diameter × shorter diameter × height)/2] was measured on 8, 12, 16 and 20 days after inoculation, and the tumor growth inhibition rate (TGIR) of each sample was determined. TGIR was calculated from the following equation: TGIR (%) = (1 - T/C) × 100 [formula] wherein C represents a tumor volume of the control group and T represents a tumor volume of the group to which the sample was administered.
In this connection, respective test runs were divided by broken lines.

[5] = 50 h, sample concentration 10^0 µg/ml, cultured for 42 hours, then 8 hours with 3H-TdR
[6] = 50 h, sample concentration 10^-1 µg/ml, cultured for 42 hours, then 8 hours with 3H-TdR
[7] = 50 h, sample concentration 10^-2 µg/ml, cultured for 42 hours, then 8 hours with 3H-TdR
[8] = sample concentration 10^-1 µg/ml, cultured for 4 days
[9] = sample concentration 10^-2 µg/ml, cultured for 4 days

In the case of `CCCCCCCCCCCCCCC[C@@H](O)[C@H](CO[C@H]1O[C@H](CO)[C@H](O)[C@H](O)[C@H]1O)NC(=O)CCCCCCCCCCCCC` [Compound 5, (2S,3R)-1-(α-D-galactopyranosyloxy)-2-tetradecanoylamino-3-octadecanol], the lethality ([1]; single intravenous dose of 10 mg/kg) is reported as “not lethal”, the autopsy findings ([1]; single intravenous doses of 0.1, 1.0 and 10 mg/kg) is reported as “no abnormality was observed” and the LD50 at 168 h [2] is reported as no less than 10 mg/kg. It also gave an activity at 1 µg/mL [3, 5] of 473%, an activity at 0.1 µg/mL [3, 6] of 170% and an activity at 0.01 µg/mL [3, 7] of 153%. It also gave an inhibition in vivo at 0.1 mg/kg [4] of 92.1%.
For `CCCCCCCCCCCCCCCCCCCCCC[C@@H](O)C(=O)N[C@@H](CO[C@H]1O[C@H](CO)[C@H](O)[C@H](O)[C@H]1O)[C@H](O)[C@H](O)CCCCCCCCCCC` [Compound 23, (2S,3S,4R)-1-(α-D-galactopyranosyloxy)-2-[(R)-2-hydroxytetracosanoylamino]-3,4-pentadecanediol], the activity at 1 µg/mL [3, 5] was 423%, the activity at 0.1 µg/mL [3, 6] was 167% and the activity at 0.01 µg/mL [3, 7] was 143%. For the same compound, the inhibition in vivo at 0.1 mg/kg [4] was 94.1%.
`CCCCCCCCCCCCCCCCCCCCCC[C@@H](O)C(=O)N[C@@H](CO[C@H]1O[C@H](CO)[C@H](O)[C@H](O)[C@H]1O)[C@H](O)[C@H](O)CCCCCCC` [Compound 24, (2S,3S,4R)-1-(α-D-galactopyranosyloxy)-2-[(R)-2-hydroxytetracosanoylamino]-3,4-undecanediol] showed an activity at 1 µg/mL [3, 5] of 416%, an activity at 0.1 µg/mL [3, 6] of 167% and an activity at 0.01 µg/mL [3, 7] of 144%. For the same compound, the inhibition in vivo at 0.1 mg/kg [4] was 52.5%.
`CCCCCCCCCCCCCCCCCCCCCCCC[C@@H](O)C(=O)N[C@@H](CO[C@H]1O[C@H](CO)[C@H](O)[C@H](O)[C@H]1O)[C@H](O)[C@H](O)CCCCCCCCCCCCCC` [Compound 25, (2S,3S,4R)-1-(α-D-galactopyranosyloxy)-2-[(R)-2-hydroxyhexacosanoylamino]-3,4-octadecanediol] showed an activity at 1 µg/mL [3, 5] of 230%, an activity at 0.1 µg/mL [3, 6] of 179% and an activity at 0.01 µg/mL [3, 7] of 161%. It also gave an inhibition in vivo at 0.1 mg/kg [4] of 92.8%.
In the case of `CCCCCCCCCCCCCCCCCCCCCCCC[C@@H](O)C(=O)N[C@@H](CO[C@H]1O[C@H](CO)[C@H](O)[C@H](O)[C@H]1O)[C@H](O)[C@H](O)CCCCCCCCCCCCCCC` [Compound 26, (2S,3S,4R)-1-(α-D-galactopyranosyloxy)-2-[(R)-2-hydroxyhexacosanoylamino]-3,4-nonadecanediol], the activity at 1 µg/mL [3, 5] is reported as 253%, the activity at 0.1 µg/mL [3, 6] is reported as 199% and the activity at 0.01 µg/mL [3, 7] is reported as 193%. The inhibition in vivo at 0.1 mg/kg [4] was 72.3%.
`CCCCCCCCCCCCCCCCCCCCCCCC[C@@H](O)C(=O)N[C@@H](CO[C@H]1O[C@H](CO)[C@H](O)[C@H](O)[C@H]1O)[C@H](O)[C@H](O)CCCCCCCCCCCCCCCC` [Compound 27, (2S,3S,4R)-1-(α-D-galactopyranosyloxy)-2-[(R)-2-hydroxyhexacosanoylamino]-3,4-icosanediol] showed an activity at 1 µg/mL [3, 5] of 257%, an activity at 0.1 µg/mL [3, 6] of 181% and an activity at 0.01 µg/mL [3, 7] of 162%. The inhibition in vivo at 0.1 mg/kg [4] was 92.8%.
Compound `CCCCCCCCCCCCCCCCCCCCCC[C@H](O)C(=O)N[C@@H](CO[C@H]1O[C@H](CO)[C@H](O)[C@H](O)[C@H]1O)[C@H](O)[C@H](O)CCCCCCCCCCCCC` [Compound 28, (2S,3S,4R)-1-(α-D-galactopyranosyloxy)-2-[(S)-2-hydroxytetracosanoylamino]-3,4-heptadecanediol] has an activity at 1 µg/mL [3, 5] of 357%, an activity at 0.1 µg/mL [3, 6] of 172% and an activity at 0.01 µg/mL [3, 7] of 141%. It also gave an inhibition in vivo at 0.1 mg/kg [4] of 76.2%.
Work on `CCCCCCCC/C=C\CCCCCCCC(=O)N[C@@H](CO[C@H]1O[C@H](CO)[C@H](O)[C@H](O)[C@H]1O)[C@H](O)CCCCCCCCCCCCCCC` [Compound 29, (2S,3R)-1-(α-D-galactopyranosyloxy)-2-oleoylamino-3-octadecanol] yielded an activity at 1 µg/mL [3, 5] of 319%, an activity at 0.1 µg/mL [3, 6] of 382% and an activity at 0.01 µg/mL [3, 7] of 215%. It also gave an inhibition in vivo at 0.1 mg/kg [4] of 79.7%.
Compound `CCCCCCCCCCCCCCCCCCCCCC[C@H](O)C(=O)N[C@@H](CO[C@H]1O[C@H](CO)[C@H](O)[C@H](O)[C@H]1O)[C@H](O)[C@H](O)CCCCCCCCCCCC(C)C` [Compound 30, (2S,3S,4R)-1-(α-D-galactopyranosyloxy)-2-[(S)-2-hydroxytetracosanoylamino]-16-methyl-3,4-heptadecanediol] has an activity at 1 µg/mL [3, 5] of 385%, an activity at 0.1 µg/mL [3, 6] of 156% and an activity at 0.01 µg/mL [3, 7] of 134%. It also gave an inhibition in vivo at 0.1 mg/kg [4] of 57.7%.
`CCCCCCCCCCCCCCCCCCCCCCCC(=O)N[C@@H](CO[C@H]1O[C@H](CO)[C@H](O)[C@H](O)[C@H]1O)[C@H](O)[C@H](O)CCCCCCCCCCCC(C)C` [Compound 31, (2S,3S,4R)-1-(α-D-galactopyranosyloxy)-16-methyl-2-tetracosanoylamino-3,4-heptadecanediol] showed an activity at 1 µg/mL [3, 5] of 398%, an activity at 0.1 µg/mL [3, 6] of 235% and an activity at 0.01 µg/mL [3, 7] of 163%. For the same compound, the inhibition in vivo at 0.1 mg/kg [4] was 83.4%.
`CCCCCCCCCCCCCCCCCCCCCCC[C@@H](O)C(=O)N[C@@H](CO[C@H]1O[C@H](CO)[C@H](O)[C@H](O)[C@H]1O)[C@H](O)[C@H](O)CCCCCCCCCCCC(C)CC` (stereo partly drawn) [Compound 34, (2S,3S,4R)-1-(α-D-galactopyranosyloxy)-2-[(R)-2-hydroxypentacosanoylamino]-16-methyl-3,4-octadecanediol] showed an activity at 0.1 µg/mL ([3]; 96 h, sample concentration 10^-1 µg/ml, cultured for 4 days) of 360%, an activity at 0.01 µg/mL ([3]; 96 h, sample concentration 10^-2 µg/ml, cultured for 4 days) of 406% and an inhibition in vivo at 0.1 mg/kg [4] of 88.9%.
`CCCCCCCCCCCCC/C=C/[C@@H](O)[C@H](CO[C@H]1O[C@H](CO)[C@H](O)[C@H](O)[C@H]1O)NC(=O)CCCCCCCCCCCCC` [Compound 35, (2S,3R,4E)-1-(α-D-galactopyranosyloxy)-2-tetradecanoylamino-4-octadecen-3-ol] gave an activity at 1 µg/mL [3, 5] of 562%, an activity at 0.1 µg/mL [3, 6] of 261% and an activity at 0.01 µg/mL [3, 7] of 247%. The inhibition in vivo at 0.1 mg/kg [4] was 63%.
With “(2S,3S,4R)-1-(α-D-galactopyranosyloxy)-2-[(R)-2-hydroxytetracosanoylamino]-3,4-heptadecanediol [Compound 22]” the “Uptake of ^3H-TdR (% of control)” value ([3]; sample concentration 10^0 µg/ml, cultured for 42 hours, then 8 hours with 3H-TdR) was 414 % of control, the “Uptake of ^3H-TdR (% of control)” value ([3]; sample concentration 10^-1 µg/ml, cultured for 42 hours, then 8 hours with 3H-TdR) was 166 % of control and the “Uptake of ^3H-TdR (% of control)” value ([3]; sample concentration 10^-2 µg/ml, cultured for 42 hours, then 8 hours with 3H-TdR) was 149 % of control. The “TGIR (%)” value [4] was 82.4%.
With “(2S,3S,4R)-1-(α-D-galactopyranosyloxy)-2-[(R)-2-hydroxytetracosanoylamino]-3,4-hexadecanediol [Compound 32]” the “Uptake of ^3H-TdR (% of control)” value [3, 8] was 406 % of control, the “Uptake of ^3H-TdR (% of control)” value [3, 9] was 426 % of control and the “TGIR (%)” value [4] was 73.2%.
For “(2S,3S,4R)-1-(α-D-galactopyranosyloxy)-2-[(R)-2-hydroxytricosanoylamino]-16-methyl-3,4-heptadecanediol [Compound 33]”, the “Uptake of ^3H-TdR (% of control)” value [3, 8] was 365 % of control, the “Uptake of ^3H-TdR (% of control)” value [3, 9] was 422 % of control and the “TGIR (%)” value [4] was 76.5%.
